{"source": "patent US8440209B2", "about": "“Adhesive for medical applications and means for haemostasis” (Stryker Trauma GmbH, priority 2006, dated 2013)", "tested_on": "S. aureus ATCC 6538", "assay": "agar diffusion test according to Burkhardt", "assay_type": "cell-based", "conditions": "18+2 hours at 36° C.", "procedure": "The agar diffusion test according to Burkhardt (Burkhardt, F. (Hrsg.) Mikrobiologische Diagnostik. Georg-Thieme Verlag Stuttgart, New York 1992, p. 724) was carried out. Mueller-Hinton II-Agar in Stacker Petri dishes (Becton Dickinson Microbiology Systems, Cockeysville, USA) were employed in the test for 15. The strain S. aureus ATCC 6538 was selected as test strain. The initial seed of this test strain was chosen such that after […] of incubation, closely standing, but not confluent, single colonies had developed. After drying of the seeded culture media, the treated collagen non-woven material was applied to the agar surface. After 18+2 hours incubation at 36° C., the inhibition sphere was measured."}
{"substance": "Gentamycine", "values": [{"measurement": "Inhibition sphere against S. aureus ATCC 6538", "setting": "Treatment 20%", "result": 24}, {"measurement": "Inhibition sphere against S. aureus ATCC 6538", "setting": "Treatment 40%", "result": 38}]}
